Where “and” joins values, the source holds several entries; their conditions need not be identical. Equal values may be shown once.
Tests used:
Type in all cases: in vitro ADME
[1] = Kinetic analysis of NCMN-O-demethylation in beagle dog liver microsomes; details: beagle, dog, beagle dog liver microsomes, pH 7.4; DLM; Michaelis-Menten; substrate 1-150 µM; read-out: Km1 (Km) of NCMN-O-demethylation
Method: (§1) The formation rates of NCHN were within the linear range of the protein concentration and incubation time. NCMN (1, 2.5, 5, 7.5, 10, 25, 50, 75, 100 and 150 µM) was incubated with HLM, MLM, RLM, DLM, PLM, CyLM (0.25mg protein/mL) as well as rat CYP1A2 (100 nM) for 30min. The apparent Km and Vmax values were determined by fitting the substrate concentrations versus the metabolite reaction velocities to the Michaelis-Menten equation (Equation (1)) and the Biphasic Kinetics equation (Equation (2)), and the results were graphically represented by Eadie-Hofstee plots. (1) v=Vmax[S]/Km+[S] (2) v=Vmax 1[S]/Kmax 1+[S]+Vmax 2[S]/Kmax 2+[S] where v is the rate of the reaction, Vmax is the maximum velocity estimate, Km is the substrate affinity constant, [S] is the substrate concentration.
(§2) The UFLC system consisted of a SIL-20ACHT auto sampler, a DGU-20A3 in-line degasser, a CBM-20A communications bus module, a CTO-20AC column oven, two LC-20AD pumps and an SPD-M20A photodiode array detector were used for analyzing the samples. The separation of NCMN and its metabolites was achieved on a Shim-pack XR-ODS (75 mm × 2.0 mm, 2.2 µm, Shimadzu, Kyoto, Japan) analytical column with an ODS guard column (5 mm × 2.0 mm, 2.2 µm, Shimadzu, Kyoto, Japan). The O-demethylation was quantified at the detector wavelength of 243 nm. […] The column oven was kept at 40 °C.

[2] = tested on: beagle dog liver microsomes (DLM); experiment: as above; details: Michaelis-Menten, substrate 1-150 µM
Method: as §1, §2

[3] = Kinetic analysis of NCMN-O-demethylation in mouse liver microsomes; details: mouse, mouse liver microsomes, pH 7.4; MLM; Michaelis-Menten; substrate 1-150 µM; read-out: Km1 (Km) of NCMN-O-demethylation
Method: as §1, §2

[4] = tested on: mouse liver microsomes (MLM); experiment: as above; details: Michaelis-Menten, substrate 1-150 µM
Method: as §1, §2

[5] = Kinetic analysis of NCMN-O-demethylation in human liver microsomes; details: human, human liver microsomes, pH 7.4; HLM; Michaelis-Menten; substrate 1-150 µM; read-out: Km1 (Km) of NCMN-O-demethylation
Method: as §1, §2

[6] = tested on: human liver microsomes (HLM); experiment: as above; details: Michaelis-Menten, substrate 1-150 µM
Method: as §1, §2

[7] = tested on: minipig liver microsomes (PLM); experiment: Kinetic analysis of NCMN-O-demethylation in minipig liver microsomes; details: biphasic kinetics, substrate 1-150 µM
Method: as §1, §2

[8] = tested on: cynomolgus monkey liver microsomes (CyLM); experiment: Kinetic analysis of NCMN-O-demethylation in cynomolgus monkey liver microsomes; details: biphasic kinetics, substrate 1-150 µM
Method: as §1, §2

[9] = tested on: rat liver microsomes (RLM); experiment: Kinetic analysis of NCMN-O-demethylation in rat liver microsomes; details: biphasic kinetics, substrate 1-150 µM
Method: as §1, §2

COc1ccc2c3c(cccc13)C(=O)N(CCCC(=O)O)C2=O [NCMN, N-(3-carboxypropyl)-4-methoxy-1,8-naphthalimide]
Km at 30 min [1]: 61.8 ± 3.52 µM
Vm1 (Vmax) of NCMN-O-demethylation [2]: 13.53 ± 0.34 nmol/min/mg
Km at 30 min [3]: 22.8 ± 1.22 µM
Vm1 (Vmax) of NCMN-O-demethylation [4]: 33.17 ± 0.42 nmol/min/mg
Km at 30 min [5]: 9.54 ± 0.24 µM
Vm1 (Vmax) of NCMN-O-demethylation [6]: 25.61 ± 0.15 nmol/min/mg
Km1 of NCMN-O-demethylation [7]: 242.80 ± 111.80 µM
Km2 of NCMN-O-demethylation [7]: 5.70 ± 3.27 µM
Vm1 of NCMN-O-demethylation [7]: 28.22 ± 5.82 nmol/min/mg
Vm2 of NCMN-O-demethylation [7]: 3.35 ± 1.20 nmol/min/mg
Km1 of NCMN-O-demethylation [8]: 198.70 ± 39.66 µM
Km2 of NCMN-O-demethylation [8]: 0.18 ± 0.09 µM
Vm1 of NCMN-O-demethylation [8]: 8.43 ± 0.91 nmol/min/mg
Vm2 of NCMN-O-demethylation [8]: 0.28 ± 0.08 nmol/min/mg
Km1 of NCMN-O-demethylation [9]: 1134.00 µM and 1134.00 ± 482.10 µM
Km2 of NCMN-O-demethylation [9]: 5.66 ± 0.80 µM
Vm1 of NCMN-O-demethylation [9]: 78.42 ± 31.17 nmol/min/mg
Vm2 of NCMN-O-demethylation [9]: 5.71 ± 0.45 nmol/min/mg

Reference: article PMC6695839, “Interspecies Variation in NCMN-O-Demethylation in Liver Microsomes from Various Species” (Molecules, 2019)
